The subject of this test is psoriasis. Put plainly: Psoriasis, patients 32 and 33. The note with it: patient 32; fluocinonide alone on other elbow. The class given is in vivo, human. An excerpt:
Patient 32 had suffered from psoriasis on their arms and elbows for over 10 years. A 10-30 Kd peat preparation was applied to one elbow twice daily for approximately nine months, with the occasional simultaneous application of fluocinonide cream. Fluocinonide cream alone was used on the other elbow.
Patient 33 had psoriasis that seemed to only manifest itself after an occurrence of strep throat. Their only successful treatment had been with chemotherapeutic agents.

With `CC(=O)OCC(=O)[C@@]12OC(C)(C)O[C@@H]1C[C@H]1[C@@H]3C[C@H](F)C4=CC(=O)C=C[C@]4(C)[C@@]3(F)[C@@H](O)C[C@@]12C` [fluocinonide], the “psoriasis of elbow, skin lesions” value is “no decrease in the skin lesions”.

The values are drawn from US6267962A, “Compositions and methods of treatment using peat derivatives” (C-P Technology Limited Partnership, priority 1997, dated 2001).
